Results published in BindingDB's records for doi:10.1021/jm061152t (Abbott Laboratories, 2007).
pEC50: −log10 of the molar value. “And” between values parts separate entries of the source, which are not always exact repeats. Equal entries are not always repeated.

Key:
[1] = The binding affinities (Ki) of compounds were determined using fluorescence polarization assays (FPA) that measure their ability to competitively displace a Bad-derived peptide from Bcl-xL. Compound efficacy (EC50) in a cellular context was evaluated by testing their ability to reverse the protection from cytokine w
[2] = The binding affinities (Ki) of compounds were determined using fluorescence polarization assays (FPA) that measure their ability to competitively displace a Bad-derived peptide from Bcl-xL. IC50 values were binding affinities measured in the presence of 10% human serum. Compound efficacy (EC50) in a cellular co; conditions: pH 7.4

pEC50 [1] | pEC50 [2] | pEC50 ([1]; pH 7.4) | SMILES
6.74 | 6.64 | – | COC1(Cc2ccccc2Cl)CCN(c2ccc(C(=O)NS(=O)(=O)c3ccc(N[C@H](CCN(C)C)CSc4ccccc4)c([N+](=O)[O-])c3)cc2)CC1 [4-{4-[(2-chlorophenyl)methyl]-4-methoxypiperidin-1-yl}-N-[(4-{[(2R)-4-(dimethylamino)-1-(phenylsulfanyl)butan-2-yl]amino}-3-nitrobenzene)sulfonyl]benzamide]
6.00 | 6.12 | – | COC1(CC(C)(C)C)CCN(c2ccc(C(=O)NS(=O)(=O)c3ccc(N[C@H](CCN(C)C)CSc4ccccc4)c([N+](=O)[O-])c3)cc2)CC1 [N-[(4-{[(2R)-4-(dimethylamino)-1-(phenylsulfanyl)butan-2-yl]amino}-3-nitrobenzene)sulfonyl]-4-[4-(2,2-dimethylpropyl)-4-methoxypiperidin-1-yl]benzamide]
6.03 | 6.17 | – | COC1(Cc2ccccc2)CCN(c2ccc(C(=O)NS(=O)(=O)c3ccc(N[C@H](CCN(C)C)CSc4ccccc4)c([N+](=O)[O-])c3)cc2)CC1 [4-(4-benzyl-4-methoxypiperidin-1-yl)-N-[(4-{[(2R)-4-(dimethylamino)-1-(phenylsulfanyl)butan-2-yl]amino}-3-nitrobenzene)sulfonyl]benzamide]
6.70 | 7.00 | – | COC1(Cc2ccccc2Br)CCN(c2ccc(C(=O)NS(=O)(=O)c3ccc(N[C@H](CCN(C)C)CSc4ccccc4)c([N+](=O)[O-])c3)cc2)CC1 [4-{4-[(2-bromophenyl)methyl]-4-methoxypiperidin-1-yl}-N-[(4-{[(2R)-4-(dimethylamino)-1-(phenylsulfanyl)butan-2-yl]amino}-3-nitrobenzene)sulfonyl]benzamide]
5.80 | 5.96 | – | CN(C)CC[C@H](CSc1ccccc1)Nc1ccc(S(=O)(=O)NC(=O)c2ccc(N3CCC(=Cc4ccccc4C#N)CC3)cc2)cc1[N+](=O)[O-] [4-{4-[(2-cyanophenyl)methylidene]piperidin-1-yl}-N-[(4-{[(2R)-4-(dimethylamino)-1-(phenylsulfanyl)butan-2-yl]amino}-3-nitrobenzene)sulfonyl]benzamide]
5.44 | 5.59 | – | CN(C)CC[C@H](CSc1ccccc1)Nc1ccc(S(=O)(=O)NC(=O)c2ccc(N3CCC(=Cc4ccc(C(F)(F)F)cc4)CC3)cc2)cc1[N+](=O)[O-] [N-[(4-{[(2R)-4-(dimethylamino)-1-(phenylsulfanyl)butan-2-yl]amino}-3-nitrobenzene)sulfonyl]-4-(4-{[4-(trifluoromethyl)phenyl]methylidene}piperidin-1-yl)benzamide]
7.00 | 6.74 | – | COC1(Cc2ccccc2F)CCN(c2ccc(C(=O)NS(=O)(=O)c3ccc(N[C@H](CCN(C)C)CSc4ccccc4)c([N+](=O)[O-])c3)cc2)CC1 [N-[(4-{[(2R)-4-(dimethylamino)-1-(phenylsulfanyl)butan-2-yl]amino}-3-nitrobenzene)sulfonyl]-4-{4-[(2-fluorophenyl)methyl]-4-methoxypiperidin-1-yl}benzamide]
6.46 | 6.60 | – | CN(C)CC[C@H](CSc1ccccc1)Nc1ccc(S(=O)(=O)NC(=O)c2ccc(N3CCC(=Cc4ccccc4F)CC3)cc2)cc1[N+](=O)[O-] [N-[(4-{[(2R)-4-(dimethylamino)-1-(phenylsulfanyl)butan-2-yl]amino}-3-nitrobenzene)sulfonyl]-4-{4-[(2-fluorophenyl)methylidene]piperidin-1-yl}benzamide]
6.70 | 6.82 | – | COC1(Cc2ccccc2C)CCN(c2ccc(C(=O)NS(=O)(=O)c3ccc(N[C@H](CCN(C)C)CSc4ccccc4)c([N+](=O)[O-])c3)cc2)CC1 [N-[(4-{[(2R)-4-(dimethylamino)-1-(phenylsulfanyl)butan-2-yl]amino}-3-nitrobenzene)sulfonyl]-4-{4-methoxy-4-[(2-methylphenyl)methyl]piperidin-1-yl}benzamide]
6.52 | 6.60 | – | COC1(Cc2cccc(Cl)c2)CCN(c2ccc(C(=O)NS(=O)(=O)c3ccc(N[C@H](CCN(C)C)CSc4ccccc4)c([N+](=O)[O-])c3)cc2)CC1 [4-{4-[(3-chlorophenyl)methyl]-4-methoxypiperidin-1-yl}-N-[(4-{[(2R)-4-(dimethylamino)-1-(phenylsulfanyl)butan-2-yl]amino}-3-nitrobenzene)sulfonyl]benzamide]
6.30 | 6.40 | – | COC1(Cc2ccc(Cl)cc2)CCN(c2ccc(C(=O)NS(=O)(=O)c3ccc(N[C@H](CCN(C)C)CSc4ccccc4)c([N+](=O)[O-])c3)cc2)CC1 [4-{4-[(4-chlorophenyl)methyl]-4-methoxypiperidin-1-yl}-N-[(4-{[(2R)-4-(dimethylamino)-1-(phenylsulfanyl)butan-2-yl]amino}-3-nitrobenzene)sulfonyl]benzamide]
5.96 | 6.22 | – | COC1(Cc2ccc(-c3ccccc3)cc2)CCN(c2ccc(C(=O)NS(=O)(=O)c3ccc(N[C@H](CCN(C)C)CSc4ccccc4)c([N+](=O)[O-])c3)cc2)CC1 [N-[(4-{[(2R)-4-(dimethylamino)-1-(phenylsulfanyl)butan-2-yl]amino}-3-nitrobenzene)sulfonyl]-4-{4-methoxy-4-[(4-phenylphenyl)methyl]piperidin-1-yl}benzamide]
7.70 | 7.46 | – | COC1(Cc2ccccc2-c2ccccc2)CCN(c2ccc(C(=O)NS(=O)(=O)c3ccc(N[C@H](CCN(C)C)CSc4ccccc4)c([N+](=O)[O-])c3)cc2)CC1 [N-[(4-{[(2R)-4-(dimethylamino)-1-(phenylsulfanyl)butan-2-yl]amino}-3-nitrobenzene)sulfonyl]-4-{4-methoxy-4-[(2-phenylphenyl)methyl]piperidin-1-yl}benzamide]
6.68 | 6.82 | – | CN(C)CC[C@H](CSc1ccccc1)Nc1ccc(S(=O)(=O)NC(=O)c2ccc(N3CCC(=Cc4ccccc4C(F)(F)F)CC3)cc2)cc1[N+](=O)[O-] [N-[(4-{[(2R)-4-(dimethylamino)-1-(phenylsulfanyl)butan-2-yl]amino}-3-nitrobenzene)sulfonyl]-4-(4-{[2-(trifluoromethyl)phenyl]methylidene}piperidin-1-yl)benzamide]
< 4.30 | – | < 4.70 | CC1OC2(CCN(c3ccc(C(=O)NS(=O)(=O)c4ccc(N[C@H](CCN(C)C)CSc5ccccc5)c([N+](=O)[O-])c4)cc3)CC2)N(Cc2ccccc2)C1=O (stereo partly drawn) [4-{4-benzyl-2-methyl-3-oxo-1-oxa-4,8-diazaspiro[4.5]decan-8-yl}-N-[(4-{[(2R)-4-(dimethylamino)-1-(phenylsulfanyl)butan-2-yl]amino}-3-nitrobenzene)sulfonyl]benzamide]
< 4.30 | – | < 4.30 | CN(C)CC[C@H](CSc1ccccc1)Nc1ccc(S(=O)(=O)NC(=O)c2ccc(N3CCN(C(=O)Nc4ccccc4)CC3)cc2)cc1[N+](=O)[O-] [4-(4-{[(4-{[(2R)-4-(dimethylamino)-1-(phenylsulfanyl)butan-2-yl]amino}-3-nitrobenzene)sulfonyl]carbamoyl}phenyl)-N-phenylpiperazine-1-carboxamide]
6.37 and 6.34 | – | – | CN(C)CC[C@H](CSc1ccccc1)Nc1ccc(S(=O)(=O)NC(=O)c2ccc(N3CCN(Cc4ccccc4N4CCOCC4)CC3)cc2)cc1[N+](=O)[O-] [N-[(4-{[(2R)-4-(dimethylamino)-1-(phenylsulfanyl)butan-2-yl]amino}-3-nitrobenzene)sulfonyl]-4-(4-{[2-(morpholin-4-yl)phenyl]methyl}piperazin-1-yl)benzamide]
